# Experimental data published in paper PMC8397425, “A Strategy to Conjugate Bioactive Fragments to Cytotoxic Diiron Bis(cyclopentadienyl) Complexes” (Organometallics, 2021).
# Values joined by “and” are separate entries in the source; they are usually repeats but may differ in a detail not shown here. Identical values can stand only once. Like-named read-outs stand apart in the source and are kept apart here.
# Experiments:
# [1] = Octanol–water partition coefficient (shake-flask, UV–vis); assay type: physicochemical; conditions: T = 21 °C
# Method: The solubility of the complexes in D2O was assessed using ^1H NMR spectroscopy (see Table 1 and the Experimental Section for details). […] Data from the literature for the related nonfunctionalized complexes [2′,3′]CF3SO3 are compiled in Table 1 for comparison.[11] The octanol–water partition coefficients (Log Pow) were measured using a UV–vis method and fall within the −0.2 to +1.2 range (Table 1). […] For instance, Log Pow values of 1.07 and 0.65 are obtained for the geometric isomers [9]CF3SO3 and [10]CF3SO3, respectively. […]
# Determination of partition coefficients (Log P ow)
# Partition coefficients ( Pow; IUPAC: K D partition constant, 7,8 defined as Pow = corg/caq, where corg and caq are the molar concentrations of the selected compound in the organic and aqueous phases, respectively, were determined by the shake-flask method and UV-Vis measurements. 9 Values of Log Pow for diiron complexes are compiled in Table 2. All the operations were carried out at 21±1 °C. De -ionised water and 1-octanol were mixed and vigorously stirred for 24 hours at room temperature to allow saturation of both phases, then separated by centrifugation and used for the following experiments. A solution of the selected Fe compound in the organic phase (V = 5 mL) was prepared and its UV-Vis spectrum was recorded. An aliquot of the solution (Vorg = 1.5 mL) was then transferred into a test tube and the aqueous phase (Vorg = Vaq = 1.5 mL) was added. The mixture was vigorously stirred for 20 minutes and the resulting emulsion was centrifuged (5000 rpm, 10’). […]
# (§1) the organic phase was recorded. The procedure was repeated three times for each compound. The partition coefficient was then calculated as PPow = AorgA0,org − Aorg, where A0,org and Aorg are the absorbance values in the organic phase, respectively before and after mixing with the aqueous phase. 9 UV-Vis measurements were carried out using 1 cm PMMA cuvettes. The wavelength of the maximum absorption of each compound was used for UV-Vis quantification.
# [2] = Stability in D2O/DMSO at 37 °C by 1H NMR; assay type: physicochemical; conditions: for stability (%), residual percent of complex / stability (%), residual percentage of the complex: D2O/DMSO 2/1 v/v; for stability (%), total percentage of diiron complexes with a chlorambucil-like group: D2O/DMSO 1/1 v/v
# Method: Conversely, [3–7]CF3SO3, containing either {Aryl–OCOAsp} or {Aryl-NHCOAsp} moieties, were stable under the same conditions. […] Complete conversion into the bis-hydroxide [8^2OH]^+ was achieved within 72 h. Similarly, [9,10]CF3SO3 undergo activation of the {C–Cl} bonds to give mixtures of the partially Cl/OH substituted species [9^OH]^+ and [10^OH]^+ and the fully substituted species [9^2OH]^+ and [10^2OH]^+.
# [3] = system: Human Ovarian Carcinoma (A2780) cell line; test: MTT cytotoxicity, A2780; assay type: cell-based; conditions: 72 h exposure, MTT, mean ± SD
# From the text: (§2) Human ovarian carcinoma (A2780 and A2780cisR) cell lines were obtained from the European Collection of Cell Cultures. The Human Embryonic Kidney 293T (HEK 293T) cell line was obtained from the ATCC (Sigma, Buchs, Switzerland). Penicillin–streptomycin, RPMI 1640 GlutaMAX (where RPMI = Roswell Park Memorial Institute), and DMEM GlutaMAX media (where DMEM = Dulbecco’s modified Eagle medium) were obtained from Life Technologies, and fetal bovine serum (FBS) was obtained from Sigma. The cells were cultured in RPMI 1640 GlutaMAX (A2780 and A2780cisR) and DMEM GlutaMAX (HEK 293T) media containing 10% heat-inactivated FBS and 1% penicillin–streptomycin at 37 °C and CO2 (5%). The A2780cisR cell line was routinely treated with cisplatin (2 μM) in the media to maintain cisplatin resistance. The cytotoxicity was determined using the 3-(4,5-dimethyl-2-thiazolyl)-2,5-diphenyl-2H-tetrazolium bromide (MTT) assay.[42] Cells were seeded in flat-bottomed 96-well plates as a suspension in a prepared medium (100 μL aliquots and approximately 4300 cells/well) and preincubated for 24 h. Stock solutions of compounds were prepared in DMSO and were diluted in the medium. The solutions were sequentially diluted to give a final DMSO concentration of 0.5% and a final compound concentration range of 0–200 μM. Cisplatin was tested as a positive (0–100 μM) control. The compounds were placed in the preincubated 96-well plates in 100 μL aliquots, and the plates were incubated for a further 72 h. MTT (20 μL, 5 mg/mL in Dulbecco’s phosphate buffered saline) was placed in the cells, and the plates were incubated for a further 4 h. The culture medium was aspirated, and the purple formazan crystals, formed by the mitochondrial dehydrogenase activity of vital cells, were dissolved in DMSO (100 μL/well). The absorbance of the resulting solutions, directly proportional to the number of surviving cells, was quantified at 590 nm using a SpectroMax M5e multimode microplate reader (using SoftMax Pro software, version 6.2.2). The percentage of surviving cells was calculated from the absorbance of wells corresponding to the untreated control cells. The reported IC50 values are based on the means from two independent experiments, each comprising four tests per concentration level.
# [4] = system: Human Ovarian Carcinoma Cisplatin Resistant (A2780cisR) cell line; test: MTT cytotoxicity, A2780cisR; assay type: cell-based; conditions: 72 h exposure, mean ± SD
# From the text: as §2
# [5] = system: Human Embryonic Kidney 293T (HEK 293T) cell line; test: MTT cytotoxicity, HEK 293T; assay type: cell-based; conditions: 72 h exposure, mean ± SD
# From the text: as §2
# COX-2 enzyme = target: T1, COX-2 enzyme (Homo sapiens, UniProt P35354); test: COX-2 enzyme inhibition assay (fluorimetric); assay type: biochemical; conditions: residual enzyme activity, 25 °C, pH 8, mean ± SD
# T1 construct: purchased Cayman Chemical Company
# T1 sequence (P35354 18-604): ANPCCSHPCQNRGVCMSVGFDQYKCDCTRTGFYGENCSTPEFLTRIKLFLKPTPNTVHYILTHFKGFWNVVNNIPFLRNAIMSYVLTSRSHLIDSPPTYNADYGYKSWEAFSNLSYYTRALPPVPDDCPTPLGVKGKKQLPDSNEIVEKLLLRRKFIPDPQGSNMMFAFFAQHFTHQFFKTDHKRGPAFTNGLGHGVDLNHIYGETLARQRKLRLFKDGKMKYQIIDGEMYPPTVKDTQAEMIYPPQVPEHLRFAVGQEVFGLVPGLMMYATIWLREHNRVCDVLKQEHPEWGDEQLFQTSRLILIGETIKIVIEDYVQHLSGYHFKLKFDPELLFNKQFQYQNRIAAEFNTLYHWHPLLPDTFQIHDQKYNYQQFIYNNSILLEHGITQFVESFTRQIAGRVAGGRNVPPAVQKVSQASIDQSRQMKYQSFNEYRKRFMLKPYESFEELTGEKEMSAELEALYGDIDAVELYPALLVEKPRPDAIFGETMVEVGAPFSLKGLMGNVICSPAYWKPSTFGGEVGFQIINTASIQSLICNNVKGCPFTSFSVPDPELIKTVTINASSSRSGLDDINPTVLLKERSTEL
# Method: Next, the possible role of the bioactive fragment in the complexes was studied.
# The IC50 value was obtained using GraphPad Prism 7 software. All of the inhibitor assays were performed at least in triplicate.
# [6] = Stability in cell culture medium at 37 °C by NMR; assay type: physicochemical; conditions: after 72 h
# Method: Complexes [3]CF3SO3, [5]CF3SO3, and [8]CF3SO3 were selected for an evaluation of their stability in the culture medium. Compounds were dissolved in DMSO-d6, and these solutions were diluted with the cell culture medium and stored at 37 °C. According to NMR spectroscopy, progressive release of the bioactive fragment occurred over 72 h, affording [3′]^+ from [3]CF3SO3 and [5′]^+ from [5]CF3SO3 (Figures S41 and S42). […] Overall, these findings indicate that the diiron scaffold decorated with biofunctionalized vinyliminium ligands is robust in aqueous media, with a tendency to progressively release the bioactive moiety in the medium used in cytotoxicity studies.
# [8]CF3SO3, after 24 h: [3']+ and chlorambucil species ([8OH]+ + [8 2OH]+) (ratio 5:2). From [8]CF3SO3, after 72 h:
# [3']+ and chlorambucil species ([82OH]+) (ratio 7:2).
# Determination of partition coefficients (Log P ow) […]
# as §1, with “The procedure was repeated three times for each compound.” left out, “9 UV-Vis measurements were carried out using 1 cm PMMA cuvettes.” left out
# cancer cell lines = conditions: cited from earlier work
# [7] = system: Human Ovarian Carcinoma (A2780) cell line; conditions: 72 h exposure, cited from earlier work
# [8] = system: Human Ovarian Carcinoma Cisplatin Resistant (A2780cisR) cell line; conditions: 72 h exposure, cited from earlier work
# [9] = Solubility in D2O by 1H NMR; assay type: physicochemical; conditions: Me2SO2 internal standard, T = 21 °C
# Method: The solubility of the complexes in D2O was assessed using ^1H NMR spectroscopy (see Table 1 and the Experimental Section for details). […] Data from the literature for the related nonfunctionalized complexes [2′,3′]CF3SO3 are compiled in Table 1 for comparison.[11] The octanol–water partition coefficients (Log Pow) were measured using a UV–vis method and fall within the −0.2 to +1.2 range (Table 1). […] For instance, Log Pow values of 1.07 and 0.65 are obtained for the geometric isomers [9]CF3SO3 and [10]CF3SO3, respectively.
# [10] = system: Human Embryonic Kidney 293T (HEK 293T) cell line; conditions: 72 h exposure; cited from earlier work
# [11] = deuterated aqueous medium, 37 °C
Log Pow [1],"stability (%), residual percent of complex ([2]; 24 h at 37 °C)",IC50 (COX-2 enzyme),solubility [9],Molecule,IC50 [3],IC50 [4],IC50 [5],other results
–0.19 ± 0.01,70%,20 ± 2 µM,–,[Fe2Cp2(CO)(μ-CO){μ-η^1:η^3-Cγ(4-C6H4NHC(=O)C6H4OC(=O)Me)CβHCαNMe2}]CF3SO3 [[7]CF3SO3],71 ± 14 µM,87 ± 10 µM,> 100 µM,–
–0.10 ± 0.01,69%,10 ± 2 µM,–,[Fe2Cp2(CO)(μ-CO){μ-η^1:η^3-Cγ(3-C6H4NHC(=O)C6H4OC(=O)Me)CβHCαNMe2}]CF3SO3 [[5]CF3SO3],43 ± 6 µM,45 ± 1 µM,89.9 ± 0.3 µM,dissociation of the bioactive fragment [6]: complete dissociation
–,–,–,–,C#CCOC(=O)c1ccccc1OC(C)=O [ALK^A1],–,–,–,activity toward cancer cell lines (cancer cell lines): absence of activity
–,–,–,–,O=C(O)CCCc1ccc(N(CCCl)CCCl)cc1 [chlorambucil],–,–,–,IC50 ([7]; ref 22b): 5.2 ± 1.6 µM; IC50 ([8]; ref 22b): 25 ± 4 µM
0.80 ± 0.02,91%,66 ± 2 µM,<1 × 10^–4 mol L^–1,[Fe2Cp2(CO)(μ-CO){μ-η^1:η^3-Cγ(3-C6H4NHC(=O)C6H4OC(=O)Me)CβHCαNMe(Xyl)}]CF3SO3 [[6]CF3SO3],6.5 ± 0.8 µM,7 ± 2 µM,7.2 ± 0.9 µM,–
1.2 ± 0.2,–,–,<1 × 10^–4 mol L^–1,[Fe2Cp2(CO)(μ-CO){μ-η^1:η^3-Cγ(3-C6H4OC(=O)(CH2)3C6H4N(CH2CH2Cl)2)CβHCαNMe2}]CF3SO3 [[8]CF3SO3],4.7 ± 0.4 µM,23 ± 3 µM,20 ± 9 µM,"stability (%), total percentage of diiron complexes with a chlorambucil-like group ([2]; 24 h at 37 °C): 84%; stability (%), total percentage of diiron complexes with a chlorambucil-like group ([2]; 72 h at 37 °C): 77%; stability of the linkage to the bioactive fragment (hydrolysis) [2, 11]: did not undergo hydrolysis; time to complete conversion into the bis-hydroxide (Cl/OH exchange) [2, 11]: ≤ 72 h"
–,–,–,–,"N.N.[Cl][Pt][Cl] [cisplatin, reference compound]",0.6 ± 0.1 µM,7.9 ± 0.1 µM,2.6 ± 0.4 µM,–
–,–,–,–,"CC(=O)Oc1ccccc1C(=O)O [aspirin, acetylsalicylic acid]",–,–,–,IC50 [7]: > 200 µM; IC50 [8]: > 200 µM; IC50 [10]: > 200 µM
–,–,–,–,[Fe2Cp2(CO)2(μ-CO){μ-CNMe(R)}]CF3SO3 (R = Me) [[1a]CF3SO3],–,–,–,IC50 [7]: > 200 µM; IC50 A2780 [7]: not active
0.40 ± 0.01,85%,84 ± 2 µM,<1 × 10^–4 mol L^–1,[Fe2Cp2(CO)(μ-CO){μ-η^1:η^3-Cγ(CH2OC(=O)C6H4OC(=O)Me)CβHCαNMe(Xyl)}]CF3SO3 [[2]CF3SO3],13 ± 2 µM,14 ± 1 µM,9.2 ± 0.5 µM,"stability (%), residual percentage of the complex ([2]; 72 h at 37 °C): 69%; release of aspirin from the linkage ([2]; deuterated aqueous medium, 37 °C, 24 h): approximately 20%"
0.65 and 0.65 ± 0.02,–,–,<1 × 10^–4 mol L^–1,[Fe2Cp2(CO)(μ-CO){μ-η^1:η^3-Cγ(4-C6H4NHC(=O)(CH2)3C6H4N(CH2CH2Cl)2)CβHCαNMe2}]CF3SO3 [[10]CF3SO3],6.4 ± 1.4 µM,15 ± 5 µM,30 ± 1 µM,"stability (%), total percentage of diiron complexes with a chlorambucil-like group ([2]; 24 h at 37 °C): 93%; stability (%), total percentage of diiron complexes with a chlorambucil-like group ([2]; 72 h at 37 °C): 85%"
–,–,–,–,"[Fe2Cp2(CO)2(μ-CO){μ-CNMe(R)}]CF3SO3 (R = Xyl = 2,6-C6H3Me2) [[1b]CF3SO3]",–,–,–,IC50 [7]: 9.3 ± 0.7 µM
0.24 ± 0.01,81%,71 ± 1 µM,–,[Fe2Cp2(CO)(μ-CO){μ-η^1:η^3-Cγ(3-C6H4OC(=O)C6H4OC(=O)Me)CβHCαNMe2}]CF3SO3 [[3]CF3SO3],24 ± 5 µM,21 ± 5 µM,42 ± 6 µM,"stability (%), residual percentage of the complex ([2]; 72 h at 37 °C): 57%"
